Source: patent US11840686B2, “Modulation of prekallikrein (PKK) expression” (Ionis Pharmaceuticals, Inc., priority 2013, dated 2023)
Strand notation (5' to 3'): a small letter for the sugar, then the base; units joined by * are phosphorothioate-linked, units joined directly phosphodiester-linked; [ ] holds rarer units or linkages, { } end groups; capitals alone tell only the bases. e = 2'-O-(2-methoxyethyl) (MOE); [5mC] = 5-methylcytosine; d = 2'-deoxy (DNA)

Assays:
human PKK mRNA [1] = experiment: Antisense inhibition of human PKK mRNA in HepaRG cells, 5,000 nM (Example 2); assay type: cell-based
Procedure, shortened: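 Chimeric MOE gapmers with full phosphorothioate backbones were tested once at 5,000 nM in electroporated HepaRG cells. After about 24 hours, quantitative PCR measured PKK mRNA relative to untreated control cells.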

human PKK mRNA [2] = experiment: Dose-dependent antisense inhibition of human PKK in HepaRG cells, 0.19-5.00 uM (Example 5); assay type: cell-based; details: HepaRG cells; for percent inhibition of PKK mRNA, 0.19 μM: 0.19 μM antisense oligonucleotide; for percent inhibition of PKK mRNA, 0.56 μM: 0.56 μM antisense oligonucleotide; for percent inhibition of PKK mRNA, 1.67 μM: 1.67 μM antisense oligonucleotide; for percent inhibition of PKK mRNA, 5.00 μM: 5.00 μM antisense oligonucleotide
Procedure, shortened: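 PKK mRNA knockdown was measured by real-time PCR (primer probe set RTS3454) about 16 h after electroporating 20,000 HepaRG cells per well with oligonucleotide at four doses from 0.19 to 5.00 μM. Levels were adjusted to RIBOGREEN-measured total RNA, and IC50 values were calculated.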

[3] = human PKK mRNA in HepaRG cells, 5-10-5 gapmers, Table 14
[4] = electroporation, approximately 16 hours, Table 39
[5] = 4 point dose response, Table 39
[6] = electroporation, approximately 16 hours, Table 35
[7] = 4 point dose response, Table 35
[8] = Table 9 experiment, HepaRG cells, 20,000 cells per well, electroporation with 5,000 nM antisense oligonucleotide, approx. 24 hours, PKK mRNA by RT-PCR (RTS3454), relative to untreated control cells
[9] = Table 10 experiment, HepaRG cells, 20,000 cells per well, electroporation with 5,000 nM antisense oligonucleotide, approx. 24 hours, PKK mRNA by RT-PCR (RTS3454), relative to untreated control cells
[10] = electroporation, approximately 16 hours, Table 40
[11] = electroporation, approximately 16 hours, Table 37
[12] = 4 point dose response, Table 37
[13] = human PKK mRNA, HepaRG cells, 5-10-5 motif oligonucleotides targeting SEQ ID NO: 1 and 10
[14] = electroporation, approximately 16 hours, Table 36

546870 (e[5mC]*eT*eG*eT*eA*d[5mC]*d[5mC]*dT*dA*dT*dA*dA*d[5mC]*dT*d[5mC]*eT*eA*eA*e[5mC]*eA; antisense) [compound 546870]
% inhibition (human PKK mRNA [1]; [3]): 87% | percent inhibition of PKK at 0.19 μM (human PKK mRNA [2]; [4]): 35% | percent inhibition of PKK at 0.56 μM (human PKK mRNA [2]; [4]): 42% | percent inhibition of PKK at 1.67 μM (human PKK mRNA [2]; [4]): 80% | percent inhibition of PKK at 5.00 μM (human PKK mRNA [2]; [4]): 95% | IC50 (human PKK mRNA [2]; [5]): 500 nM | percent inhibition of PKK mRNA, 0.19 μM (human PKK mRNA [2]): 36% | percent inhibition of PKK mRNA, 0.56 μM (human PKK mRNA [2]): 34% | percent inhibition of PKK mRNA, 1.67 μM (human PKK mRNA [2]): 61% | percent inhibition of PKK mRNA, 5.00 μM (human PKK mRNA [2]): 91% | IC50 (human PKK mRNA [2]; 0.19-5.00 μM): 1000 nM

546301 (antisense eT*eT*eG*eT*eA*dA*dT*dG*dT*d[5mC]*dT*dG*dA*d[5mC]*dA*eG*eA*eT*eT*eT) [compound 546301]
% inhibition (human PKK mRNA [1]; Table 8, HepaRG cells, electroporation with 5,000 nM antisense oligonucleotide, approx. 24 hours, PKK mRNA by RT-PCR (RTS3454), relative to untreated control cells): 93% | percent inhibition of PKK at 0.19 μM (human PKK mRNA [2]; [6]): 25% | percent inhibition of PKK at 0.56 μM (human PKK mRNA [2]; [6]): 50% | percent inhibition of PKK at 1.67 μM (human PKK mRNA [2]; [6]): 53% | percent inhibition of PKK at 5.00 μM (human PKK mRNA [2]; [6]): 87% | IC50 (human PKK mRNA [2]; [7]): 800 nM

546310 (antisense eG*eA*eT*eT*e[5mC]*d[5mC]*d[5mC]*dT*dT*d[5mC]*dT*dG*dA*dG*dA*e[5mC]*eT*eT*eT*eA) [compound 546310]
% inhibition (human PKK mRNA [1]; [8]): 78% | % inhibition (human PKK mRNA [1]; [9]): 67% | percent inhibition of PKK at 0.19 μM (human PKK mRNA [2]; [10]): 0% | percent inhibition of PKK at 0.56 μM (human PKK mRNA [2]; [10]): 36% | percent inhibition of PKK at 1.67 μM (human PKK mRNA [2]; [10]): 56% | percent inhibition of PKK at 5.00 μM (human PKK mRNA [2]; [10]): 80% | IC50 (human PKK mRNA [2]; 4 point dose response, Table 40): 1300 nM

547483 (antisense eT*e[5mC]*e[5mC]*e[5mC]*e[5mC]*d[5mC]*dT*dT*d[5mC]*dT*dT*dT*dA*dT*dA*eG*e[5mC]*e[5mC]*eA*eG) [compound 547483]
% inhibition (human PKK mRNA [1]; [8]): 71% | % inhibition (human PKK mRNA [1]; [9]): 77% | percent inhibition of PKK at 0.19 μM (human PKK mRNA [2]; [11]): 0% | percent inhibition of PKK at 0.56 μM (human PKK mRNA [2]; [11]): 9% | percent inhibition of PKK at 1.67 μM (human PKK mRNA [2]; [11]): 49% | percent inhibition of PKK at 5.00 μM (human PKK mRNA [2]; [11]): 71% | IC50 (human PKK mRNA [2]; [12]): 2100 nM

546216 (antisense e[5mC]*eT*eG*eG*eA*dG*dT*dG*dA*dG*dA*dA*d[5mC]*d[5mC]*d[5mC]*eT*eG*eG*e[5mC]*eA) [compound 546216]
% inhibition (human PKK mRNA [1]; Table 7, HepaRG cells, electroporation with 5,000 nM antisense oligonucleotide, approx. 24 hours, PKK mRNA by RT-PCR (RTS3454), relative to untreated control cells): 93% | percent inhibition of PKK at 0.19 μM (human PKK mRNA [2]; [6]): 62% | percent inhibition of PKK at 0.56 μM (human PKK mRNA [2]; [6]): 69% | percent inhibition of PKK at 1.67 μM (human PKK mRNA [2]; [6]): 88% | percent inhibition of PKK at 5.00 μM (human PKK mRNA [2]; [6]): 88% | percent inhibition of PKK at 5.00 μM (human PKK mRNA [2]; electroporation, approximately 16 hours, Table 41): 98% | percent inhibition of PKK at 0.19 0μM (human PKK mRNA [2]; 0.19 0μM, electroporation, approximately 16 hours, Table 41): 23% | percent inhibition of PKK at 0.56 0μM (human PKK mRNA [2]; 0.56 0μM, electroporation, approximately 16 hours, Table 41): 78% | percent inhibition of PKK at 1.67 1μM (human PKK mRNA [2]; 1.67 1μM, electroporation, approximately 16 hours, Table 41): 95% | IC50 (human PKK mRNA [2]; 4 point dose response, Table 41): < 200 nM

546852 (e[5mC]*eA*eG*eT*eA*dT*d[5mC]*dA*d[5mC]*dT*dG*dT*d[5mC]*d[5mC]*dT*eA*eT*eA*eT*e[5mC]; antisense) [compound 546852]
% inhibition (human PKK mRNA [1]; [3]): 94% | percent inhibition of PKK at 0.19 μM (human PKK mRNA [2]; [6]): 19% | percent inhibition of PKK at 0.56 μM (human PKK mRNA [2]; [6]): 40% | percent inhibition of PKK at 1.67 μM (human PKK mRNA [2]; [6]): 78% | percent inhibition of PKK at 5.00 μM (human PKK mRNA [2]; [6]): 85% | IC50 (human PKK mRNA [2]; [7]): 800 nM

546894 (eT*e[5mC]*eA*e[5mC]*eT*dG*dT*d[5mC]*d[5mC]*dT*dA*dT*dG*dT*d[5mC]*eA*e[5mC]*eT*eG*eT; antisense) [compound 546894]
% inhibition (human PKK mRNA [1]; [13]): 91% | percent inhibition of PKK at 0.19 μM (human PKK mRNA [2]; [14]): 15% | percent inhibition of PKK at 0.56 μM (human PKK mRNA [2]; [14]): 47% | percent inhibition of PKK at 1.67 μM (human PKK mRNA [2]; [14]): 50% | percent inhibition of PKK at 5.00 μM (human PKK mRNA [2]; [14]): 93% | IC50 (human PKK mRNA [2]; 4 point dose response, Table 36): 900 nM

547731 (eG*eG*eA*eT*eT*dG*dG*dT*dG*dG*dT*dG*dG*dG*dA*eT*eT*eG*eG*eT; antisense) [compound 547731]
% inhibition (human PKK mRNA [1]; HepaRG cells, 5,000 nM antisense oligonucleotide, 5-10-5 gapmers, Table 17): 49% | percent inhibition of PKK at 0.19 μM (human PKK mRNA [2]; [11]): 0% | percent inhibition of PKK at 0.56 μM (human PKK mRNA [2]; [11]): 0% | percent inhibition of PKK at 1.67 μM (human PKK mRNA [2]; [11]): 17% | percent inhibition of PKK at 5.00 μM (human PKK mRNA [2]; [11]): 56% | IC50 (human PKK mRNA [2]; [12]): 5000 nM

547616 (antisense eT*eG*eT*e[5mC]*e[5mC]*dT*dA*dT*dA*dT*d[5mC]*dA*d[5mC]*dT*dG*eT*eA*e[5mC]*e[5mC]*eT) [compound 547616]
% inhibition (human PKK mRNA [1]; [3]): 86% | percent inhibition of PKK at 0.19 μM (human PKK mRNA [2]; [4]): 26% | percent inhibition of PKK at 0.56 μM (human PKK mRNA [2]; [4]): 50% | percent inhibition of PKK at 1.67 μM (human PKK mRNA [2]; [4]): 72% | percent inhibition of PKK at 5.00 μM (human PKK mRNA [2]; [4]): 89% | IC50 (human PKK mRNA [2]; [5]): 600 nM

546832 (e[5mC]*eT*e[5mC]*eT*eA*dA*d[5mC]*dA*dG*dT*dA*dT*d[5mC]*dA*d[5mC]*eT*eG*eT*eA*e[5mC]; antisense) [compound 546832]
% inhibition (human PKK mRNA [1]; Table 13, human PKK mRNA in HepaRG cells, 5-10-5 gapmers): 88% | percent inhibition of PKK at 0.19 μM (human PKK mRNA [2]; [11]): 19% | percent inhibition of PKK at 0.56 μM (human PKK mRNA [2]; [11]): 38% | percent inhibition of PKK at 1.67 μM (human PKK mRNA [2]; [11]): 70% | percent inhibition of PKK at 5.00 μM (human PKK mRNA [2]; [11]): 95% | IC50 (human PKK mRNA [2]; [12]): 800 nM | percent inhibition of PKK mRNA, 0.19 μM (human PKK mRNA [2]): 36% | percent inhibition of PKK mRNA, 0.56 μM (human PKK mRNA [2]): 49% | percent inhibition of PKK mRNA, 1.67 μM (human PKK mRNA [2]): 85% | percent inhibition of PKK mRNA, 5.00 μM (human PKK mRNA [2]): 97% | IC50 (human PKK mRNA [2]; 0.19-5.00 μM): 400 nM

548752 (antisense e[5mC]*eA*e[5mC]*eT*dG*dT*dA*d[5mC]*dT*dA*dG*dT*dT*dT*e[5mC]*e[5mC]*eT*eA) [compound 548752]
% inhibition (human PKK mRNA [1]; human PKK mRNA, HepaRG cells, 5,000 nM antisense oligonucleotide, Table 18): 89% | percent inhibition of PKK at 0.19 μM (human PKK mRNA [2]; [11]): 0% | percent inhibition of PKK at 0.56 μM (human PKK mRNA [2]; [11]): 0% | percent inhibition of PKK at 1.67 μM (human PKK mRNA [2]; [11]): 51% | percent inhibition of PKK at 5.00 μM (human PKK mRNA [2]; [11]): 90% | IC50 (human PKK mRNA [2]; [12]): 1900 nM

546889 (eG*eT*e[5mC]*e[5mC]*eT*dA*dT*dG*dT*d[5mC]*dA*d[5mC]*dT*dG*dT*eA*e[5mC]*e[5mC]*eT*eA; antisense) [compound 546889]
% inhibition (human PKK mRNA [1]; [13]): 93% | percent inhibition of PKK at 0.19 μM (human PKK mRNA [2]; [6]): 23% | percent inhibition of PKK at 0.56 μM (human PKK mRNA [2]; [6]): 54% | percent inhibition of PKK at 1.67 μM (human PKK mRNA [2]; [6]): 78% | percent inhibition of PKK at 5.00 μM (human PKK mRNA [2]; [6]): 91% | IC50 (human PKK mRNA [2]; [7]): 600 nM | percent inhibition of PKK mRNA, 0.19 μM (human PKK mRNA [2]): 25% | percent inhibition of PKK mRNA, 0.56 μM (human PKK mRNA [2]): 9% | percent inhibition of PKK mRNA, 1.67 μM (human PKK mRNA [2]): 73% | percent inhibition of PKK mRNA, 5.00 μM (human PKK mRNA [2]): 92% | IC50 (human PKK mRNA [2]; 0.19-5.00 μM): 1400 nM
